Assay results as given in ChEMBL document CHEMBL2074081, “Functional characteristics and membrane localization of rat multispecific organic cation transporters, OCT1 and OCT2, mediating tubular secretion of cationic drugs” (J Pharmacol Exp Ther, 1998).

B1: Solute carrier family 22 member 2 (Rattus norvegicus) (protein)
chain: MSTVDDILEHIGEFHLFQKQTFFLLALLSGAFTPIYVGIVFLGFTPDHHCWSPGAAKLSQRCGWSQAEELNYTVPGLGPSDEASFLSQCMRYEVDWNQSTLDCVDPLSSLAADRNQLPLGPCEHGWVYNTPGSSIVTEFNLVCAHSWMLDLFQSVVNVGFFIGAMMIGYLADRFGRKFCLLVTILINAISGALMAISPNYAWMLVFRFLQGLVSKAGWLIGYILITEFVGLGYRRMVGICYQIAFTVGLLILAGVAYVIPNWRWLQFAVTLPNFCFLLYFWCIPESPRWLISQNKIVKAMKIIKHIAKKNGKSVPVSLQNLTPDEDAGKKLNPSFLDLVRTPQIRKHTLILMYNWFTSSVLYQGLIMHMGLAGDNIYLDFFYSALVEFPAAFIIILTIDRVGRRYPWAVSNMVAGAACLASVFIPDDLQWLKITIACLGRMGITMAYEMVCLVNAELYPTYIRNLGVLVCSSMCDIGGIITPFLVYRLTDIWMEFPLVVFAVVGLVAGALVLLLPETKGKALPETIEDAENMQRPRKKKEKRIYLQVKQADRPLS
B2: Solute carrier family 22 member 1 (Rattus norvegicus) (protein)
chain: MPTVDDVLEQVGEFGWFQKQAFLLLCLISASLAPIYVGIVFLGFTPGHYCQNPGVAELSQRCGWSQAEELNYTVPGLGPSDEASFLSQCMRYEVDWNQSTLDCVDPLSSLVANRSQLPLGPCEHGWVYDTPGSSIVTEFNLVCGDAWKVDLFQSCVNLGFFLGSLVVGYIADRFGRKLCLLVTTLVTSVSGVLTAVAPDYTSMLLFRLLQGMVSKGSWVSGYTLITEFVGSGYRRTTAILYQMAFTVGLVGLAGVAYAIPDWRWLQLAVSLPTFLFLLYYWFVPESPRWLLSQKRTTRAVRIMEQIAQKNGKVPPADLKMLCLEEDASEKRSPSFADLFRTPNLRKHTVILMYLWFSCAVLYQGLIMHVGATGANLYLDFFYSSLVEFPAAFIILVTIDRIGRIYPIAASNLVTGAACLLMIFIPHELHWLNVTLACLGRMGATIVLQMVCLVNAELYPTFIRNLGMMVCSALCDLGGIFTPFMVFRLMEVWQALPLILFGVLGLTAGAMTLLLPETKGVALPETIEEAENLGRRKSKAKENTIYLQVQTGKSSST

Key:
[1] = biological target: T1, Solute carrier family 22 member 2 (Rattus norvegicus, UniProt Q9R0W2); assay: TP_TRANSPORTER: inhibition of TEA uptake (basolateral to cell) in OCT2-expressing MDCK cells; format: functional, cell-based
T1 sequence (Q9R0W2 whole entry): B1 chain

[2] = biological target: T2, Solute carrier family 22 member 1 (Rattus norvegicus, UniProt Q63089); assay: TP_TRANSPORTER: inhibition of TEA uptake (basolateral to cell) in OCT1-expressing MDCK cells; format: functional, cell-based
T2 sequence (Q63089 whole entry): B2 chain

[3] = biological target: T1, Solute carrier family 22 member 2; assay: TP_TRANSPORTER: inhibition of TEA uptake (apical to cell) in OCT2-expressing MDCK cells
[4] = substrate: CC[N+](CC)(CC)CC; assay: cells, lysate or membranes named

| Molecule | Ki [1] [µM] | Ki [2] [µM] | Ki [3] [µM] | Km [4] [µM] |
| --- | --- | --- | --- | --- |
| C[n+]1ccc(-c2ccccc2)cc1 | 1.8 | 0.8 | – | – |
| CN/C(=N/CCSCc1nc[nH]c1C)NC#N [CIMETIDINE] | 9.4 | 5.7 | – | – |
| N=C(N)N [GUANIDINE] | 714 | 724 | – | – |
| CN1CCC[C@H]1c1cccnc1 [NICOTINE] | 50.5 | 64.3 | – | – |
| CNC(=O)c1cccnc1 [NICOTINYL METHYLAMIDE] | 403 | 669 | – | – |
| C=C[C@H]1C[N@@]2CC[C@H]1C[C@@H]2[C@@H](O)c1ccnc2ccc(OC)cc12 [QUINIDINE] | 19.1 | – | – | – |
| CC[N+](CC)(CC)CC [TETRYLAMMONIUM] | – | 46.6 | 52.2 | – |
| B1 | – | – | – | 45 |
| B2 | – | – | – | 38 |
